These results are taken from article PMC3823643 (Nature structural & molecular biology, 2013).

Assay [1] addresses T1, Danio rerio (zebrafish) DHFR (zDHFR) (Danio rerio, UniProt A0A8M1P929).
T1 sequence (A0A8M1P929 1-190): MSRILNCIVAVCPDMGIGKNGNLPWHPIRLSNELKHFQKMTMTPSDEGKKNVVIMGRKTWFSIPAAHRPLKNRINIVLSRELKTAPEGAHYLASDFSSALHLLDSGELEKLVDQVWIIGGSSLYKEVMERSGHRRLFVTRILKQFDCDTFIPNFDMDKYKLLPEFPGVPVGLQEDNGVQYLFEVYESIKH
As to the kind of experiment: […] HSQC NMR. Format: binding.

Assay [2] concerns the target T2, human dihydrofolate reductase (hDHFR) (Homo sapiens, UniProt P00374).
T2 sequence (P00374 1-187): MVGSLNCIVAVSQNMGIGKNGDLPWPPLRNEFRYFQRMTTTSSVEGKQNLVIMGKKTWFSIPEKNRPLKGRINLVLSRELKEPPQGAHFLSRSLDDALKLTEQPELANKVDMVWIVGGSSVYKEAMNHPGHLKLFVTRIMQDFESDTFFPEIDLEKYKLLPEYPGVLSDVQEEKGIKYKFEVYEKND
As to the kind of experiment: X-ray crystal structure. Format: biochemical.

For assay [3], the target named is E. coli dihydrofolate reductase (ecDHFR) (Escherichia coli, UniProt P0ABQ4). As to the kind of experiment: product inhibition of initial rate, absorbance at […] nm. It counts as biochemical.
Assay [4] deals with E. coli dihydrofolate reductase (ecDHFR) N23PP S148A (Escherichia coli, UniProt P0ABQ4, INS23P/N23P/S148A). The description is as above. Format: biochemical.

Regarding `Nc1nc(=O)c2nc(CNc3ccc(C(=O)N[C@@H](CCC(=O)O)C(=O)O)cc3)cnc2[nH]1` [FOL, folic acid], the “15N HSQC NMR” value in assay [1] was “Each panel shows a superposition of E– NADP^+–FOL (model Michaelis complex, black) and E–NADP^+– THF”.

Consider `NC(=O)c1ccc[n+]([C@@H]2O[C@H](COP(=O)(O)OP(=O)(O)OC[C@H]3O[C@@H](n4cnc5c(N)ncnc54)[C@H](OP(=O)(O)O)[C@@H]3O)[C@@H](O)[C@H]2O)c1` [NADP+, NADP^+], for which the IC50 was approximately 620 µM in assay [2], 6520 µM in assay [3] and 1270 µM in assay [4].

What is called IC50 is the midpoint of a concentration-inhibition curve. Low values mean greater potency, high ones weaker potency.
